Measured values as given in ChEMBL document CHEMBL4049450, “Discovery of 5-Azaindazole (GNE-955) as a Potent Pan-Pim Inhibitor with Optimized Bioavailability” (J Med Chem, 2017).
Values after ≈ are worked out from the molar mass of the structure shown.

Experiments:
[1] = Metabolic stability in rat intestinal microsomes assessed as compound remaining after 60 mins in absence of NADPH/UDPGA; type: ADME, Intestine, Microsome; details: for remaining at 1 h: intestinal microsomes, read-out: Stability; for Stability: microsomes, 1 h
[2] = Metabolic stability in rat intestinal microsomes assessed as compound remaining after 60 mins in presence of UDPGA; type: ADME, Intestine, Microsome; details: read-out: Stability
[3] = Clearance in rat hepatocytes; type: ADME, cell-based, Hepatocyte
[4] = Oral bioavailability in rat at 5 mg/kg; type: ADME, organism-based; details: in vivo
[5] = Metabolic stability in rat intestinal microsomes assessed as compound remaining after 60 mins in presence of NADPH; type: ADME, Intestine, Microsome; details: read-out: Stability
MM1.S = assay: Antiproliferative activity against human MM1S cells after 72 hrs by CellTiter-Glo assay; type: functional, cell-based
[6] = Clearance in rat liver microsomes; type: ADME, microsome
[7] = Metabolic stability in rat intestinal microsomes assessed as compound remaining after 60 mins in presence of NADPH/UDPGA; type: ADME, Intestine, Microsome; details: for remaining at 1 h: intestinal microsomes, read-out: Stability; for Stability: microsomes, 1 h
[8] = Clearance in rat at 1 mg/kg, iv; type: ADME, organism-based; details: in vivo
[9] = Efflux ratio of apparent permeability in MDCK cells; details: dog
[10] = Kinetic solubility of compound at pH 7.4; details: buffer
[11] = Apparent permeability across apical to basolateral side in MDCK cells; type: ADME, cell-based, Canis lupus familiaris; details: dog
[12] = Metabolic stability in human intestinal microsomes assessed as compound remaining after 60 mins in absence of NADPH/UDPGA; type: ADME, Intestine, Microsome; details: 1 h
[13] = Metabolic stability in mouse intestinal microsomes assessed as compound remaining after 60 mins in presence of NADPH/UDPGA; type: ADME, Intestine, Microsome; details: 1 h
[14] = Metabolic stability in human intestinal microsomes assessed as compound remaining after 60 mins in presence of NADPH/UDPGA; type: ADME, Intestine, Microsome; details: 1 h
[15] = Metabolic stability in mouse intestinal microsomes assessed as compound remaining after 60 mins in absence of NADPH/UDPGA; type: ADME, Intestine, Microsome; details: 1 h
[16] = Metabolic stability in cynomolgus monkey intestinal microsomes assessed as compound remaining after 60 mins in absence of NADPH/UDPGA; type: ADME, Macaca fascicularis, Intestine, Microsome; details: 1 h
[17] = Metabolic stability in dog intestinal microsomes assessed as compound remaining after 60 mins in absence of NADPH/UDPGA; type: ADME, Canis lupus familiaris, Intestine, Microsome; details: 1 h
[18] = Metabolic stability in dog intestinal microsomes assessed as compound remaining after 60 mins in presence of NADPH/UDPGA; type: ADME, Canis lupus familiaris, Intestine, Microsome; details: 1 h
[19] = Metabolic stability in cynomolgus monkey intestinal microsomes assessed as compound remaining after 60 mins in presence of NADPH/UDPGA; type: ADME, Macaca fascicularis, Intestine, Microsome; details: 1 h
[20] = molecular target: Serine/threonine-protein kinase pim-2 (Homo sapiens, UniProt Q9P1W9); assay: Inhibition of PIM2 (unknown origin) using 5FAM-ARKRRRHPSGPPTA as substrate after 90 mins in presence of ATP by caliper microfluidic mobility shift assay
[21] = molecular target: T1, Serine/threonine-protein kinase pim-1 (Homo sapiens, UniProt P11309); assay: Inhibition of PIM1 (unknown origin) using 5FAM-ARKRRRHPSGPPTA as substrate after 90 mins in presence of ATP by caliper microfluidic mobility shift assay
Target sequence in this assay (P11309 whole entry): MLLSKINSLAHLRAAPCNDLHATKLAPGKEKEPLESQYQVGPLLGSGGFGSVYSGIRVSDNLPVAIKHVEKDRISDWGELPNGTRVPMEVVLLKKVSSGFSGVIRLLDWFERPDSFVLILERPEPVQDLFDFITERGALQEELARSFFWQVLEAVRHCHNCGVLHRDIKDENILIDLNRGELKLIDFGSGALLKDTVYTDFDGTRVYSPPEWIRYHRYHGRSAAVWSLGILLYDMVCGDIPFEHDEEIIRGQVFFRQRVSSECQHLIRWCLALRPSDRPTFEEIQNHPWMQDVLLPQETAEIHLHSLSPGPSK

[22] = molecular target: Serine/threonine-protein kinase pim-3 (Homo sapiens, UniProt Q86V86); assay: Inhibition of PIM3 (unknown origin) using 5FAM-ARKRRRHPSGPPTA as substrate after 90 mins in presence of ATP by caliper microfluidic mobility shift assay
Plasma [23] = assay: Drug level in rat plasma treated with N4-Phenylpyrimidine-2,4-diamine at 5 mg/kg, po; type: ADME, organism-based; details: in vivo
[24] = molecular target: Dual specificity protein kinase CLK1 (Homo sapiens) (UniProt P49759); assay: Inhibition of CLK1 (unknown origin) at 0.1 uM
[25] = molecular target: T1, Serine/threonine-protein kinase pim-1; assay: Inhibition of PIM1 (unknown origin) at 0.1 uM
Target sequence in this assay (P11309 whole entry, looked up): as the sequence (P11309 whole entry) above

hERG (KCNH2) [26] = molecular target: T2, hERG (KCNH2) (Homo sapiens, UniProt Q12809); assay: Inhibition of human ERG expressed in HEK293 cells at 1 uM after 5 mins by patch clamp assay; type: cell-based; details: HEK293 cells that express hERG
[27] = molecular target: Receptor-type tyrosine-protein kinase FLT3 (Homo sapiens) (UniProt P36888); assay: Inhibition of FLT3 (unknown origin) at 0.1 uM
Homo sapiens [28] = organism: Homo sapiens; assay: Inhibition of PIM in human […] cells assessed as reduction in 4EBP1 phosphorylation by Western blot analysis; type: cell-based
Homo sapiens [29] = organism: Homo sapiens; assay: Inhibition of PIM in human MM1S cells assessed as reduction in S6 s235/236 phosphorylation by Western blot analysis; type: cell-based
Homo sapiens [30] = organism: Homo sapiens; assay: Inhibition of PIM in human […] cells assessed as reduction in BAD phosphorylation by Western blot analysis; type: cell-based
Homo sapiens [31] = organism: Homo sapiens; assay: Inhibition of PIM in human MM1S cells assessed as reduction in S6 s240/244 phosphorylation by Western blot analysis; type: cell-based
hERG (KCNH2) [32] = molecular target: T2, hERG (KCNH2); assay: Inhibition of human ERG expressed in HEK293 cells at 10 uM after 5 mins by patch clamp assay; type: cell-based; details: HEK293 cells that express hERG
Plasma [33] = assay: Drug metabolism in rat assessed as 6-((R)-1-(6-(5-(1-ethyl-1H-pyrazol-4-yl)-1H-pyrazolo[3,4-c]pyridin-3-yl)pyridin-2-yl)piperidin-3-ylamino)-3,4,5-trihydroxytetrahydro-2H-pyran-2-carboxylic acid metabolite formation in plasma at 5 mg/kg, po; type: ADME, organism-based; details: in vivo
Plasma [34] = assay: Drug metabolism in rat assessed as M1 metabolite formation in plasma at 5 mg/kg, po; type: ADME, organism-based; details: in vivo

Chain of Serine/threonine-protein kinase pim-2 (Q9P1W9 whole entry): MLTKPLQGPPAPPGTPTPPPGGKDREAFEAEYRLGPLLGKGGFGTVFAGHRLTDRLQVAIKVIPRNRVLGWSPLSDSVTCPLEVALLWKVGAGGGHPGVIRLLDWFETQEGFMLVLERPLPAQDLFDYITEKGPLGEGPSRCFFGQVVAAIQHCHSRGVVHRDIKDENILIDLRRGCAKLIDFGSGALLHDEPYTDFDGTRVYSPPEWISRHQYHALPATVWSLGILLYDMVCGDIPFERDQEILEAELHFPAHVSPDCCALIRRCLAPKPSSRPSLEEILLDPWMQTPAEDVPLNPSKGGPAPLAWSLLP
T2 sequence (Q12809 whole entry): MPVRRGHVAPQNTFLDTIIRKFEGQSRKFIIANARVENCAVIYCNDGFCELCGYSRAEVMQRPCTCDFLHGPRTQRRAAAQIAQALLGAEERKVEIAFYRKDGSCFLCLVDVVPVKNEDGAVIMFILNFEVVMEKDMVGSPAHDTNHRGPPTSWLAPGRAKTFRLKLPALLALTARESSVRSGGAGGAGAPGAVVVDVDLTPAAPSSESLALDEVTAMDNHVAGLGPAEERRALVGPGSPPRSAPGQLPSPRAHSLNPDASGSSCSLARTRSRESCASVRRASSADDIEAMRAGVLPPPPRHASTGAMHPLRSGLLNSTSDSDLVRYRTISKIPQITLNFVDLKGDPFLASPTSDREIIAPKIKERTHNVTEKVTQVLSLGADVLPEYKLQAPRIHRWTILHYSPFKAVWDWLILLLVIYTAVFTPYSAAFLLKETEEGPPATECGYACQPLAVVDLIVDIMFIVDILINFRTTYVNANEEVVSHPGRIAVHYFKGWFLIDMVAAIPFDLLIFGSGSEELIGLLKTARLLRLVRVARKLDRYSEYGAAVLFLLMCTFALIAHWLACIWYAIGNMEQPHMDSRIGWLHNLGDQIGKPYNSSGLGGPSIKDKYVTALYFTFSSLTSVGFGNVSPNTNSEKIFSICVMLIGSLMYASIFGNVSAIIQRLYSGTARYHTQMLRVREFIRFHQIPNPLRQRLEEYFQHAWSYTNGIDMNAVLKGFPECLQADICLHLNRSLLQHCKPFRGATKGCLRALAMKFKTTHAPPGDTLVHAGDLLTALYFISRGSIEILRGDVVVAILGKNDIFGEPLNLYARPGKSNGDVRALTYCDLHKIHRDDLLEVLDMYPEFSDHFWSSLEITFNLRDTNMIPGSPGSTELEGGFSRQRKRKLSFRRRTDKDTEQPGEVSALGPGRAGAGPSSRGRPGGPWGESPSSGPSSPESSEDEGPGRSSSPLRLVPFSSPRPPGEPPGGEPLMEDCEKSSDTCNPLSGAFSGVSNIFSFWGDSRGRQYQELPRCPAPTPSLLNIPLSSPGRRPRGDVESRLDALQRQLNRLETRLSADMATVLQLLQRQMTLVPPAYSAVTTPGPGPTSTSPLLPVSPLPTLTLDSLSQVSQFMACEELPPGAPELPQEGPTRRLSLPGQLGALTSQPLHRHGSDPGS
Chain of Dual specificity protein kinase CLK1 (Homo sapiens) (P49759 whole entry, looked up): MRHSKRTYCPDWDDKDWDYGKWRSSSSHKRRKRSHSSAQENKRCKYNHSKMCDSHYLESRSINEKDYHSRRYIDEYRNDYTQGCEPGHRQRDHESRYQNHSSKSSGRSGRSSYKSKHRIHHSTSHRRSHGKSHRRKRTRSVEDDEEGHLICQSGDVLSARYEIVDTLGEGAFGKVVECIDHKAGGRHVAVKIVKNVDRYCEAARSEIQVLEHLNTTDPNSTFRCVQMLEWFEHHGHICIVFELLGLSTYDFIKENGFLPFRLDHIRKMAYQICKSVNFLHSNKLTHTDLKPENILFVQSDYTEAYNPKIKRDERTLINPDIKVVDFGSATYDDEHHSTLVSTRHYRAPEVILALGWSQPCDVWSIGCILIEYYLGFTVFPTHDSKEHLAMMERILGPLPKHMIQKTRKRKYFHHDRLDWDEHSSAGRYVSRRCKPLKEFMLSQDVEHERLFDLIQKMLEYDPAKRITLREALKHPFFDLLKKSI
Chain of Receptor-type tyrosine-protein kinase FLT3 (Homo sapiens) (P36888 whole entry): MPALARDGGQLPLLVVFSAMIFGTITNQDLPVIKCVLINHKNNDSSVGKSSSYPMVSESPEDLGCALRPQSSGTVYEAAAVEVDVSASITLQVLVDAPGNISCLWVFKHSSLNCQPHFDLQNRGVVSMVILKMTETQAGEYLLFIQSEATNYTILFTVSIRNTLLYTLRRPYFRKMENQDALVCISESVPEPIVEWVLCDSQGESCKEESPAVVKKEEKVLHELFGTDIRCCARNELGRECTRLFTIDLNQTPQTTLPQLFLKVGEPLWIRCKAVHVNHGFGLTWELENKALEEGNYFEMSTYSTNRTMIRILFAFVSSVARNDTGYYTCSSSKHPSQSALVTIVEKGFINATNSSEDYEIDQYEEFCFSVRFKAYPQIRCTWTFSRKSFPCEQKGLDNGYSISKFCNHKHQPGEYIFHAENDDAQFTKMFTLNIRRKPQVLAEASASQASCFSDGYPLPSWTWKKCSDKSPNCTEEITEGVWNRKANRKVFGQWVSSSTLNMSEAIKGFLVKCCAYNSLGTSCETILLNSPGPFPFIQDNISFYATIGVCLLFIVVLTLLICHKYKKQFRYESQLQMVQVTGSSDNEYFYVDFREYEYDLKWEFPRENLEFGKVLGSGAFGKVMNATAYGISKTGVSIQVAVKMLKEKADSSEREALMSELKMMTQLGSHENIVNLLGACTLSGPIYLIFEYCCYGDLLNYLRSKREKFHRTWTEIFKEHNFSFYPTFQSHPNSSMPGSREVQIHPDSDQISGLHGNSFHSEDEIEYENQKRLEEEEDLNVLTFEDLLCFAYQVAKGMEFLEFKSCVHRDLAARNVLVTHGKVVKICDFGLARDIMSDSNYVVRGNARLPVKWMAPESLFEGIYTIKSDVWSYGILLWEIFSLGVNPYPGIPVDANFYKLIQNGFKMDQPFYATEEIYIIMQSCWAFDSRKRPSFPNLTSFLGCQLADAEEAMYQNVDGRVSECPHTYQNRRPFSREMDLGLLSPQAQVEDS

| Structure (SMILES) | remaining at 1 h [1] [%] | remaining at 1 h [2] [%] | CLhep predicted [3] [mL/min/kg] | bioavailability [4] [%] | remaining at 1 h [5] [%] | IC50 (MM1.S) [nM] | CLhep predicted [6] [mL/min/kg] | remaining at 1 h [7] [%] | clearance [8] [mL/min/kg] | Stability [12] | Stability [1] | Stability [13] | Stability [14] | Stability [15] | Stability [16] | Stability [17] | Stability [18] | Stability [7] | Stability [19] | further results |
| --- | --- | --- | --- | --- | --- | --- | --- | --- | --- | --- | --- | --- | --- | --- | --- | --- | --- | --- | --- | --- |
| Cc1cncc(-c2cc3c(cn2)cnn3-c2cccc(N3CCCNCC3)n2)n1 | 91 | 85 | 27 | 42 | 99 | 5000 | 32 | 91 | 28 | – | – | – | – | – | – | – | – | – | – | – |
| Cc1ccc(-c2n[nH]c3cnc(-c4cccnc4)cc23)nc1N1CCC[C@H](N)C1 | 98 | 62 | 34 | 0 | 37 | – | 34 | 27 | 21 | – | – | – | – | – | – | – | – | – | – | efflux ratio [9]: 1.8; solubility kinetic [10]: 81.2 µM (≈ 31.3 µg/mL); Papp A→B [11]: 3 ×10⁻⁶ cm/s |
| c1cncc(-c2cc3c(-c4cccc(N5CCCNCC5)n4)n[nH]c3cn2)c1 | – | – | – | – | – | – | – | – | – | Stable | Stable | Unstable | Stable | Unstable | Stable | Stable | Stable | Unstable | Stable | – |
| Cc1cncc(-c2cc3c(cn2)cnn3-c2cccc([C@H]3CNCCC3(F)F)n2)n1 | – | – | 31 | 57 | – | 1200 | 42 | – | 40 | – | – | – | – | – | – | – | – | – | – | Ki [20]: 0.23 nM; Ki [21]: 0.07 nM |
| Cc1cncc(-c2cc3c(-c4cccc(N5CCCNCC5)n4)n[nH]c3cn2)n1 | 103 | 40 | 35 | 1.3 | 97 | 220 | 33 | 59 | 65 | – | – | – | – | – | – | – | – | – | – | efflux ratio [9]: 4.9; solubility kinetic [10]: 38.5 µM (≈ 14.9 µg/mL); Ki [22]: 0.04 to 0.041 nM; Ki [20]: 0.11 to 0.17 nM; Ki [21]: 0.02 to 0.022 nM; Papp A→B [11]: 3.2 ×10⁻⁶ cm/s |
| CCn1cc(-c2cc3c(-c4cccc(N5CCC[C@@H](NC(C)=O)C5)n4)n[nH]c3cn2)cn1 | – | – | – | – | – | – | – | – | – | – | – | – | – | – | – | – | – | – | – | Drug metabolism (Plasma [23]): Metabolite_Detected |
| Cn1cc(-c2cc3c(-c4cccc(N5CCC[C@@H](N)C5)n4)n[nH]c3cn2)cn1 | – | – | – | – | – | – | – | – | – | Stable | Stable | Unstable | Stable | Unstable | Stable | Stable | Stable | Unstable | Stable | – |
| Cc1ccc(-c2n[nH]c3cnc(-c4cccnc4)cc23)nc1N1CC[C@@H](N)C1 | – | – | – | – | – | – | – | – | – | Stable | Stable | Unstable | Stable | Unstable | Stable | Stable | Stable | Unstable | Stable | – |
| COc1ccc(-n2ncc3cnc(-c4cncc(C)n4)cc32)nc1N1CCC[C@H](N)C1 | – | – | 19 | 103 | – | 500 to 510 | 29 | 101 | 34 | – | – | – | – | – | – | – | – | – | – | inhibition [24]: 97%; inhibition [25]: 100%; Ki [22]: 0.008 to 0.02 nM; inhibition at 5 min, 1 µM (hERG (KCNH2) [26]): 37%; Ki [20]: 0.11 nM; inhibition [27]: 82%; Ki [21]: 0.018 to 0.03 nM; inhibition (Homo sapiens [28]): Dose-dependent effect; inhibition (Homo sapiens [29]): Dose-dependent effect; inhibition (Homo sapiens [30]): Dose-dependent effect; inhibition (Homo sapiens [31]): Dose-dependent effect; inhibition at 5 min, 10 µM (hERG (KCNH2) [32]): 49% |
| c1cncc(-c2cc3c(-c4cccc(N5CCNCC5)n4)n[nH]c3cn2)c1 | – | – | – | – | – | – | – | – | – | Stable | Stable | Unstable | Stable | Unstable | Stable | Stable | Stable | Unstable | Stable | – |
| CCn1cc(-c2cc3c(-c4cccc(N5CCC[C@@H](N)C5)n4)n[nH]c3cn2)cn1 | 96 | 15 | 14 | 1 | 83 | – | 24 | 30 | 8 | – | – | – | – | – | – | – | – | – | – | efflux ratio [9]: 56; solubility kinetic [10]: 116 µM (≈ 45.1 µg/mL); Drug metabolism (Plasma [33]): Metabolite_Detected; Drug metabolism (Plasma [23]): Metabolite_Detected; Drug metabolism (Plasma [34]): Metabolite_Detected; Papp A→B [11]: 0.4 ×10⁻⁶ cm/s |
